According to BigSolDB 2.1:

CC[C@@H](C(N)=O)N1CCCC1=O
solubility (mole fraction)
Conditions	in 1,4-dioxane	in acetone	in acetonitrile	in cyclohexane	in ethanol	in ethyl acetate	in isopropanol	in methanol	in n-propanol	in toluene
283.15 K	–	0.00698	0.00909	1.37e-05	0.0384	0.00424	0.0115	0.0814	0.0167	0.00122
288.15 K	0.00718	0.00887	0.0113	1.92e-05	0.0459	0.00539	0.0147	0.0974	0.0207	0.00167
293.15 K	0.00902	0.0111	0.0137	2.61e-05	0.0546	0.00676	0.0185	0.115	0.0252	0.0022
298.15 K	0.0112	0.014	0.0168	3.64e-05	0.0643	0.00847	0.0229	0.136	0.0303	0.00299
303.15 K	0.014	0.0175	0.0203	4.91e-05	0.0758	0.0104	0.0286	0.158	0.0362	0.00393
308.15 K	0.0173	0.0217	0.0245	6.61e-05	0.0885	0.0129	0.0354	0.182	0.0434	0.00524
313.15 K	0.0214	0.0268	0.0292	8.95e-05	0.103	0.0158	0.0435	0.209	0.052	0.00699
318.15 K	0.0263	0.033	0.035	0.00012	0.12	0.0194	0.0537	0.239	0.0614	0.00947
323.15 K	0.0322	0.0405	0.0416	0.00016	0.138	0.0236	0.0663	0.27	0.0729	0.0129
